Test results published in ChEMBL document CHEMBL3870304 (Eur J Med Chem, 2016).

Experiments:
[1] = cells; conditions: Homo sapiens, HCC78, 72 h
Description: Cytotoxicity against human HCC78 cells harboring SLC34A2-ROS1 assessed as reduction in cell proliferation after 72 hrs by MTT assay

[2] = cells; conditions: Homo sapiens, KARPAS-299, 72 h
Description: Cytotoxicity against human KARPAS299 cells harboring NPM-ALK assessed as reduction in cell proliferation after 72 hrs by MTT assay

[3] = cells; conditions: Homo sapiens, HT-29, 72 h
Description: Cytotoxicity against human HT-29 cells assessed as reduction in cell proliferation after 72 hrs by MTT assay

[4] = cells; conditions: Homo sapiens, NCI-H460, 72 h
Description: Cytotoxicity against human NCI-H460 cells assessed as reduction in cell proliferation after 72 hrs by MTT assay

[5] = cells; conditions: Homo sapiens, A549, 72 h
Description: Cytotoxicity against human A549 cells assessed as reduction in cell proliferation after 72 hrs by MTT assay

[6] = system: ALK tyrosine kinase receptor (Homo sapiens), Q9UM73 [L1196M]; assay: Potency index, ratio of crizotinib IC50 to compound IC50 for ALK L1196M mutant (unknown origin)
ALK tyrosine kinase receptor (Homo sapiens), Q9UM73 [L1196M], sequence (Q9UM73 whole entry L1196M, looked up): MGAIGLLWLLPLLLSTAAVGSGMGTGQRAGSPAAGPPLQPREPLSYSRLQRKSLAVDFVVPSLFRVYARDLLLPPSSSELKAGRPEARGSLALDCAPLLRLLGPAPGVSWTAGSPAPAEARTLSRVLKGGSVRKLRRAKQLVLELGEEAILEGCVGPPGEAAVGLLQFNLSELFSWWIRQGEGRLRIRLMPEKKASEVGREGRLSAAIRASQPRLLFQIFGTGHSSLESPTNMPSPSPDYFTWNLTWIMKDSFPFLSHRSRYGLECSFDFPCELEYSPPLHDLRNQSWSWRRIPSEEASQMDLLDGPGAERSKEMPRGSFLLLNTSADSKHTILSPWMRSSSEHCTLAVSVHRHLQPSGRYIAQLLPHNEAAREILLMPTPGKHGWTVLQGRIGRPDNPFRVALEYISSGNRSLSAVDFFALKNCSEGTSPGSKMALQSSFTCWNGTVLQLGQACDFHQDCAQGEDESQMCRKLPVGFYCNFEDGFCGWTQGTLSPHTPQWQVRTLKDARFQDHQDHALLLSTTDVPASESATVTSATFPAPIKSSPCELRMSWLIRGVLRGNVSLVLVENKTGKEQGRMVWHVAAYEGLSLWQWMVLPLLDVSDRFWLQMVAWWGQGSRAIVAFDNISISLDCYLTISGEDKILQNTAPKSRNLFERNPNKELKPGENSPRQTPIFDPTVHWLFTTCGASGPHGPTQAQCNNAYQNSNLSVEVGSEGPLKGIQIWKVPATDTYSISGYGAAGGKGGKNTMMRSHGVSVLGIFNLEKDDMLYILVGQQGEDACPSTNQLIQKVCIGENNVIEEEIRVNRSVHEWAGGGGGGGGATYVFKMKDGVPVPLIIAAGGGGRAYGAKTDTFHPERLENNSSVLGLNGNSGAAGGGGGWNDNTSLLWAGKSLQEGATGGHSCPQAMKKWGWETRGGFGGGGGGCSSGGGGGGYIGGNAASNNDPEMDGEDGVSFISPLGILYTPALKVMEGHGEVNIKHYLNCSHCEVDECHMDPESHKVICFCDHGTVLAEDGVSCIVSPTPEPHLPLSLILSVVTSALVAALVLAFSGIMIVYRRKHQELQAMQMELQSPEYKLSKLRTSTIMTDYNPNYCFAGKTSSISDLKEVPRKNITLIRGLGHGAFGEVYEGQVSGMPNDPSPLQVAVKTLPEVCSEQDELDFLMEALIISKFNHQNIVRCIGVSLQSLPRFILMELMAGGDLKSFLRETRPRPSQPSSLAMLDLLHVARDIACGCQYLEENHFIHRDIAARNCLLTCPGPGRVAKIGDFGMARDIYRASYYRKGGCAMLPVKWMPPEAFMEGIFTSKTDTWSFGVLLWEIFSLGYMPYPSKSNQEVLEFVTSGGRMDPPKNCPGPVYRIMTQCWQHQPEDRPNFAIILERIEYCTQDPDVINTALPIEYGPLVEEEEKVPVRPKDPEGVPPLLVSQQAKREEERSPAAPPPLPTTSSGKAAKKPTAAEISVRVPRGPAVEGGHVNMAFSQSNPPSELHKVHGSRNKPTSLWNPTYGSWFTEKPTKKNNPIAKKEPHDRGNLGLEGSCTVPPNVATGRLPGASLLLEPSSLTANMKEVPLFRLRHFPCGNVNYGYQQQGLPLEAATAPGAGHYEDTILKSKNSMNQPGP

[7] = target: T1, ALK tyrosine kinase receptor (Homo sapiens, UniProt Q9UM73)
Target sequence in this assay (Q9UM73 whole entry): as the sequence (Q9UM73 whole entry L1196M, looked up) above, with M1196L counted along it
Description: Inhibition of ALK (unknown origin) using peptide as substrate after 60 mins by HTRF assay

[8] = target: ALK tyrosine kinase receptor (Homo sapiens, UniProt Q9UM73, L1196M)
ALK tyrosine kinase receptor (Homo sapiens, UniProt Q9UM73, L1196M), sequence (Q9UM73 19-1620 L1196M limits assumed): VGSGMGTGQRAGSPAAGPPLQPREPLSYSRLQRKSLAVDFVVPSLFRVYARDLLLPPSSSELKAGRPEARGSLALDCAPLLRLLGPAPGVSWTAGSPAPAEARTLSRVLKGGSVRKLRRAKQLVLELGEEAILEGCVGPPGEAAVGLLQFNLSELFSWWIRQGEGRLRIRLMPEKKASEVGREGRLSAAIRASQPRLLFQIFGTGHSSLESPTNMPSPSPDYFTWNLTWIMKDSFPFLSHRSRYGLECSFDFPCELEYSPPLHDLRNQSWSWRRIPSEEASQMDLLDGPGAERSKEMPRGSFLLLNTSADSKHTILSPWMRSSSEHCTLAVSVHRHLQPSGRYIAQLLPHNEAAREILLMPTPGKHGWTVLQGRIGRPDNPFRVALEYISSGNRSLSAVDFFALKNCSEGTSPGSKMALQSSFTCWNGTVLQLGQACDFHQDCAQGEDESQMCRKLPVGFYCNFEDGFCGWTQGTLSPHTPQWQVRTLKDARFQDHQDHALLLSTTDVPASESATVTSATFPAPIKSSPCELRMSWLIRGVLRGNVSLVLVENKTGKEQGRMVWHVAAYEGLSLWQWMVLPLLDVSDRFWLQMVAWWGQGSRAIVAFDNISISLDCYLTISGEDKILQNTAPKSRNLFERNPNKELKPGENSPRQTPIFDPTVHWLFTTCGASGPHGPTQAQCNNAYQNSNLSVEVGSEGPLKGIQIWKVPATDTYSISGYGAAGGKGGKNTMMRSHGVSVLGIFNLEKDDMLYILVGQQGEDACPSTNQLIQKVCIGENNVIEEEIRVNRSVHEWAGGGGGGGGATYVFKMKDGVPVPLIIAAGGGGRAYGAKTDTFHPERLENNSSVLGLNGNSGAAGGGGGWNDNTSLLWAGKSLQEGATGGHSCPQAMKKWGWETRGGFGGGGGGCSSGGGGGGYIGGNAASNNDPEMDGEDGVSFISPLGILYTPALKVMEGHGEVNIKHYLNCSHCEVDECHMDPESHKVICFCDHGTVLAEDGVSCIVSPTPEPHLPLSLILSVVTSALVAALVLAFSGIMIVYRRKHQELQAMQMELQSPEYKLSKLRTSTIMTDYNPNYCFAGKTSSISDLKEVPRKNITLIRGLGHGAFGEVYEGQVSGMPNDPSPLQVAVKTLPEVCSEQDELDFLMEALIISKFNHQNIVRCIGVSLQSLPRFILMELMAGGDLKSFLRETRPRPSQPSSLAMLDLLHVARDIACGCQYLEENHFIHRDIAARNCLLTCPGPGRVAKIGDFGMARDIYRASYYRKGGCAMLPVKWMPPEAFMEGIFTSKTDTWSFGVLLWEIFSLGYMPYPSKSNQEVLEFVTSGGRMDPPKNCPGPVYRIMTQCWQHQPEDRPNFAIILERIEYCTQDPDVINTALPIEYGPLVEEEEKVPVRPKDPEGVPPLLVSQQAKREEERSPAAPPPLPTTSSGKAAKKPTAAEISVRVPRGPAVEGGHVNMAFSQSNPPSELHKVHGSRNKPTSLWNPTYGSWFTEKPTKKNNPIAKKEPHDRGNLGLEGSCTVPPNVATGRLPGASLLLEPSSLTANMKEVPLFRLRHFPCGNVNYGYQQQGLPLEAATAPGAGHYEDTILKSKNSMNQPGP

[9] = target: Hepatocyte growth factor receptor (Homo sapiens, UniProt P08581)
Hepatocyte growth factor receptor, sequence (P08581 whole entry): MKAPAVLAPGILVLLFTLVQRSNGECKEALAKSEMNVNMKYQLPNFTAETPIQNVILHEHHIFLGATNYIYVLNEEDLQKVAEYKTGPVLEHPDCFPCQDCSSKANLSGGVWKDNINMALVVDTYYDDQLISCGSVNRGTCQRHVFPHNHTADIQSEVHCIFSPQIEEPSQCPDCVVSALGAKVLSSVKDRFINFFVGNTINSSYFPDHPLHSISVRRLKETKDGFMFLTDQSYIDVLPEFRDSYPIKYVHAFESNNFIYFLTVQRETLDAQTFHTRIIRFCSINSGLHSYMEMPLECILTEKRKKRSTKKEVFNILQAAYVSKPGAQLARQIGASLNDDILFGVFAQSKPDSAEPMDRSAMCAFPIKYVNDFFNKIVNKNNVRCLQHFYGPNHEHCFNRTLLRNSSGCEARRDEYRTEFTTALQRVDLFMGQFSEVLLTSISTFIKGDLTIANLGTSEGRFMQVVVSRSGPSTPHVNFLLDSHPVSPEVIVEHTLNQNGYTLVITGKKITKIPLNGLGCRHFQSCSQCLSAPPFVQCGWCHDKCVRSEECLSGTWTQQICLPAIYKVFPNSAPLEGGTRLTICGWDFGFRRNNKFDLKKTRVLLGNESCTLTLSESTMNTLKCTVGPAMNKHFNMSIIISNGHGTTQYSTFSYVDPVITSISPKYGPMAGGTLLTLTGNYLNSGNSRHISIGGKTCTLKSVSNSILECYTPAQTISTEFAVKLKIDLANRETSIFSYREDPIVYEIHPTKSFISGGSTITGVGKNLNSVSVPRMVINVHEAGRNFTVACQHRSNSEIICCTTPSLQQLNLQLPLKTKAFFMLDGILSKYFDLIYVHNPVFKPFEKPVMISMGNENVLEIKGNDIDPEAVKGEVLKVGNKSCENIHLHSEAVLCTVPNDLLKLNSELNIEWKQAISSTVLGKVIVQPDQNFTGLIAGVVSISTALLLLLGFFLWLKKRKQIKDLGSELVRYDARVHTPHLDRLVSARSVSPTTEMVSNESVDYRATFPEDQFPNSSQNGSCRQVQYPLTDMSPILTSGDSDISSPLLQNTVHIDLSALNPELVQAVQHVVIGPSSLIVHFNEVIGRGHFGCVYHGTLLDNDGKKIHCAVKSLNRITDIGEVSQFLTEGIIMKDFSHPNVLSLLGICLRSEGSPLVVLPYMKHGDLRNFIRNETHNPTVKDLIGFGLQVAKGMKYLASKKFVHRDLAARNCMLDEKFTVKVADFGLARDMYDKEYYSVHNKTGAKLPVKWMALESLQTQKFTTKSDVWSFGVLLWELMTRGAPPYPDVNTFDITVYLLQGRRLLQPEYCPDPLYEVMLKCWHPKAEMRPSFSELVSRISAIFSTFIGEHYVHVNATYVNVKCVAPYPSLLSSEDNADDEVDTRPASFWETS
Description: Inhibition of c-Met (unknown origin) using peptide as substrate after 60 mins by HTRF assay

[10] = target: Epidermal growth factor receptor (Homo sapiens, UniProt P00533)
Description: Inhibition of EGFR (unknown origin) using peptide as substrate after 60 mins by HTRF assay

[11] = target: Proto-oncogene tyrosine-protein kinase ROS (Homo sapiens, UniProt P08922)
Description: Inhibition of ROS1 (unknown origin) using peptide as substrate after 60 mins by HTRF assay

[12] = target: T1, ALK tyrosine kinase receptor; assay: Potency index, ratio of crizotinib IC50 to compound IC50 for ALK (unknown origin)
Target sequence in this assay (Q9UM73 19-1620 limits assumed): as the sequence (Q9UM73 19-1620 L1196M limits assumed) above, with M1178L counted along it

[13] = system: KARPAS-299; assay: Potency index, ratio of crizotinib IC50 to compound IC50 against human KARPAS299 cells harboring NPM-ALK; type: functional
[14] = system: HCC78; assay: Potency index, ratio of crizotinib IC50 to compound IC50 against human HCC78 cells harboring SLC34A2-ROS1; type: functional

IC50 [1] [nM]	IC50 [2] [nM]	IC50 [3] [nM]	IC50 [4] [nM]	IC50 [5] [nM]	Ratio IC50 [6]	IC50 [7] [nM]	IC50 [8] [nM]	IC50 [9] [nM]	IC50 [10] [nM]	IC50 [11] [nM]	Ratio IC50 [12]	Structure (SMILES)	Ratio IC50 [13]	Ratio IC50 [14]
110	100	> 10000	3360	2280								CC(C)S(=O)(=O)c1ccccc1Nc1nc(N/N=C/c2ccc(F)cc2F)ncc1Cl		
80	65	5500	> 10000	3340	20	5.5	69	479	460	5		CC(C)S(=O)(=O)c1ccccc1Nc1nc(N/N=C/c2cccc(C(F)(F)F)c2)ncc1Cl		
19	16	1760	1300	1400	20	2.3	45	220	570	1.8	9	CC(C)S(=O)(=O)c1ccccc1Nc1nc(N/N=C/c2ccc(F)cc2)ncc1Cl		
18	27	> 10000	> 10000	> 10000								Cc1cc(Nc2ncc(Cl)c(Nc3ccccc3S(=O)(=O)C(C)C)n2)c(OC(C)C)cc1C1CCNCC1 [CERITINIB]		
270	340	2960	2830	2510								CC(C)S(=O)(=O)c1ccccc1Nc1nc(N/N=C/c2ccc(C#N)cc2)ncc1Cl		
82	35	1120	> 10000	940	20	3.6	73	380	593	3.4		CC(C)S(=O)(=O)c1ccccc1Nc1nc(N/N=C/c2ccc(C(F)(F)F)cc2)ncc1Cl		
670	440	2120	> 10000	1650								C/C(=N\Nc1ncc(Cl)c(Nc2ccccc2S(=O)(=O)C(C)C)n1)c1ccc(F)cc1F		
360	450	1420	1230	> 10000								CC(C)S(=O)(=O)c1ccccc1Nc1nc(N/N=C/c2ccccc2F)ncc1Cl		
850	490	5430	> 10000	> 10000								CSc1ccc(/C(C)=N/Nc2ncc(Cl)c(Nc3ccccc3S(=O)(=O)C(C)C)n2)cc1		
6300	5620	> 10000	7120	7900								CC(C)S(=O)(=O)c1ccccc1Nc1nc(N/N=C/c2ccccc2Cl)ncc1Cl		
1980	2970	1720	> 10000	9250								CC(C)S(=O)(=O)c1ccccc1Nc1nc(N/N=C/c2ccc([N+](=O)[O-])cc2)ncc1Cl		
880	910	880	570	470								CC(C)S(=O)(=O)c1ccccc1Nc1nc(N/N=C/c2cccs2)ncc1Cl		
600	540	> 10000	7150	> 10000								C/C(=N\Nc1ncc(Cl)c(Nc2ccccc2S(=O)(=O)C(C)C)n1)c1ccccc1F		
1730	1620	> 10000	1650	4420								Cc1ccc(/C=N/Nc2ncc(Cl)c(Nc3ccccc3S(=O)(=O)C(C)C)n2)cc1		
2380	2500	> 10000	> 10000	4840								C/C(=N\Nc1ncc(Cl)c(Nc2ccccc2S(=O)(=O)C(C)C)n1)c1ccc(Br)cc1		
820	870	980	1130	1420								CC(C)S(=O)(=O)c1ccccc1Nc1nc(N/N=C/c2ccncc2)ncc1Cl		
31	30	1930	1200	980	20	5.5	79	393	898	5.5		CC(C)S(=O)(=O)c1ccccc1Nc1nc(N/N=C/c2ccc(OC(F)(F)F)cc2)ncc1Cl		

IC50 [1] [nM]	IC50 [2] [nM]	IC50 [3] [nM]	IC50 [4] [nM]	IC50 [5] [nM]	Ratio IC50 [6]	IC50 [7] [nM]	IC50 [8] [nM]	IC50 [9] [nM]	IC50 [10] [nM]	IC50 [11] [nM]	Ratio IC50 [12]	Structure (SMILES)	Ratio IC50 [13]	Ratio IC50 [14]
950	1440	2300	3130	1310								CC(C)S(=O)(=O)c1ccccc1Nc1nc(N/N=C/c2ccc(Br)cc2)ncc1Cl		
310	240	1100	2020	1330								CC(C)S(=O)(=O)c1ccccc1Nc1nc(N/N=C/c2ccc(S(C)(=O)=O)cc2)ncc1Cl		
2520	750	3100	1030	1940								CC(C)S(=O)(=O)c1ccccc1Nc1nc(N/N=C/c2ccco2)ncc1Cl		
28	20	> 10000	> 10000	> 10000	20	2.5	67	> 1000	> 1000	2.7	9	C/C(=N\Nc1ncc(Cl)c(Nc2ccccc2S(=O)(=O)C(C)C)n1)c1ccc(F)cc1	2.4	11.1
210	280	980	320	880								CSc1ccc(/C=N/Nc2ncc(Cl)c(Nc3ccccc3S(=O)(=O)C(C)C)n2)cc1		
1200	1400	1030	> 10000	1090								CC(C)S(=O)(=O)c1ccccc1Nc1nc(N/N=C/c2cccc(Br)c2)ncc1Cl		
470	250	1320	1480	1230								CC(C)S(=O)(=O)c1ccccc1Nc1nc(N/N=C/c2ccccc2)ncc1Cl		
31	34	> 10000	2500	2120	20	4.9	80	> 1000	> 1000	4.7		COc1ccc(/C(C)=N/Nc2ncc(Cl)c(Nc3ccccc3S(=O)(=O)C(C)C)n2)cc1		
970	930	830	1530	1150								CC(C)S(=O)(=O)c1ccccc1Nc1nc(N/N=C/c2cccnc2)ncc1Cl		
20	28	1130	1320	580	20	4.8	82	157	587	2.3		COc1ccc(/C=N/Nc2ncc(Cl)c(Nc3ccccc3S(=O)(=O)C(C)C)n2)cc1		
4160	6930	> 10000	> 10000	7040								COc1ccccc1/C=N/Nc1ncc(Cl)c(Nc2ccccc2S(=O)(=O)C(C)C)n1		
44	22	5570	2230	1250	20	6.2	86	376	601	5.8		COc1cccc(/C=N/Nc2ncc(Cl)c(Nc3ccccc3S(=O)(=O)C(C)C)n2)c1		
1700	1320	8190	2900	2930								CC(C)S(=O)(=O)c1ccccc1Nc1nc(N/N=C/c2ccc(Cl)cc2)ncc1Cl		
310	270	> 10000	6840	> 10000								C/C(=N\Nc1ncc(Cl)c(Nc2ccccc2S(=O)(=O)C(C)C)n1)c1ccc(C#N)cc1		
19	20	2150	1230	1150								COc1cc(/C=N/Nc2ncc(Cl)c(Nc3ccccc3S(=O)(=O)C(C)C)n2)cc(OC)c1OC		
2840	2230	> 10000	> 10000	> 10000								C/C(=N\Nc1ncc(Cl)c(Nc2ccccc2S(=O)(=O)C(C)C)n1)c1ccc(C)cc1		
